Reference: patent US20130190407A1, “CALCIUM RECEPTOR-ACTIVE MOLECULES” (NPS Pharmaceuticals, Inc., priority 1991, published 2013)

Legend:
[1] = biological target: T1, parathyroid cell calcium receptor (Bos taurus, UniProt P35384); assay: Cl- current in Xenopus oocytes injected with bovine parathyroid cell poly(A)+-mRNA; format: cell-based; set-up: Whole pieces of gland were used to prepare mRNA that directs the expression of the calcium receptor in Xenopus oocytes; expressed in transfected cells; host or cells: Xenopus laevis oocytes injected with total poly(A)+ mRNA from bovine parathyroid glands; details: 30 μM
T1 sequence (P35384 20-1085): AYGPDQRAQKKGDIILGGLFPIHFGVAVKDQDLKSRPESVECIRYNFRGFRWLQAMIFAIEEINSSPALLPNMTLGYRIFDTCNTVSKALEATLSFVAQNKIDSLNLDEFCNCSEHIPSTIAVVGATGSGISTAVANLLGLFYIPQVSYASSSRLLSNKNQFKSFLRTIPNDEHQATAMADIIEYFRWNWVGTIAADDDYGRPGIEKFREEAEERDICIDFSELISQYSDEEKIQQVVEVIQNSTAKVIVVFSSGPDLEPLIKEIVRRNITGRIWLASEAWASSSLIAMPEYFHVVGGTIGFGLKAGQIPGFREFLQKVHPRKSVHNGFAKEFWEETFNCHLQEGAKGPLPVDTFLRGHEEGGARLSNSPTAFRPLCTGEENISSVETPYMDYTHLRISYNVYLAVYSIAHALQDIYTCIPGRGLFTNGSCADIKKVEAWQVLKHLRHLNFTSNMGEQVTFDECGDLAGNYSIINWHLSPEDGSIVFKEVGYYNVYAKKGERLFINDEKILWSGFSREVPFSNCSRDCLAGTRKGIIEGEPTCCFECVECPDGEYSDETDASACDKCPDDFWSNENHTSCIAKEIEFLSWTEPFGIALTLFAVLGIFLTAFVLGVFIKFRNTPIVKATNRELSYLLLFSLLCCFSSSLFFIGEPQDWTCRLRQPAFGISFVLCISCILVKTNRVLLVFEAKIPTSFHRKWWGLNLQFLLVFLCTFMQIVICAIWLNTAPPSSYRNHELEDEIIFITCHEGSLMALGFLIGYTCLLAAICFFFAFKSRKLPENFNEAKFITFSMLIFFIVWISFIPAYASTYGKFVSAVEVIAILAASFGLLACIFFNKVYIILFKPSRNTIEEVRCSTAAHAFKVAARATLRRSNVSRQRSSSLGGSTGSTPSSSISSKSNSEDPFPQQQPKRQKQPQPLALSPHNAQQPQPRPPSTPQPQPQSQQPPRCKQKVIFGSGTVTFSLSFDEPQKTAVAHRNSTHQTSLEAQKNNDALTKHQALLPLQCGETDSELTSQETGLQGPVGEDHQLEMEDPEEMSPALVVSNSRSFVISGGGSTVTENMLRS
Experimental: Following incubation, an oocyte was placed into a 100-μl plastic chamber and superfused with MBS at a flow rate of 0.5 ml/min using a peristaltic pump. Test molecules or inorganic polycations were added by rapidly moving the tubing into different buffers. Recording and current-passing electrodes were constructed from thin-wall capillary tubing pulled to a resistance of 1-3 Mohms and filled with 3 M KCl. […] Currents were recorded directly onto a strip chart recorder.
Dissociated bovine parathyroid cells were used to further explore the mechanism of action of NPS R-467 at the receptor level. […] It does, however, elicit responses in parathyroid cells and in oocytes when a small amount of extracellular Ca^2+ is present.

[2] = biological target: T2, human parathyroid cell calcium receptor (Homo sapiens, UniProt P41180, E1011Q/Q926R); assay: Cl- current in Xenopus oocytes injected with pHuPCaR 5.2; format: cell-based; details: 3 to 30 μM; 0.3 mM extracellular Ca2+
T2 construct: appear to be full-length clones corresponding to the 5 Kb mRNA; expressed in transfected cells; host or cells: Xenopus laevis oocytes injected with pHuPCaR 5.2
T2 sequence (P41180 20-1088 isoform P41180-2 Q936R/E1021Q): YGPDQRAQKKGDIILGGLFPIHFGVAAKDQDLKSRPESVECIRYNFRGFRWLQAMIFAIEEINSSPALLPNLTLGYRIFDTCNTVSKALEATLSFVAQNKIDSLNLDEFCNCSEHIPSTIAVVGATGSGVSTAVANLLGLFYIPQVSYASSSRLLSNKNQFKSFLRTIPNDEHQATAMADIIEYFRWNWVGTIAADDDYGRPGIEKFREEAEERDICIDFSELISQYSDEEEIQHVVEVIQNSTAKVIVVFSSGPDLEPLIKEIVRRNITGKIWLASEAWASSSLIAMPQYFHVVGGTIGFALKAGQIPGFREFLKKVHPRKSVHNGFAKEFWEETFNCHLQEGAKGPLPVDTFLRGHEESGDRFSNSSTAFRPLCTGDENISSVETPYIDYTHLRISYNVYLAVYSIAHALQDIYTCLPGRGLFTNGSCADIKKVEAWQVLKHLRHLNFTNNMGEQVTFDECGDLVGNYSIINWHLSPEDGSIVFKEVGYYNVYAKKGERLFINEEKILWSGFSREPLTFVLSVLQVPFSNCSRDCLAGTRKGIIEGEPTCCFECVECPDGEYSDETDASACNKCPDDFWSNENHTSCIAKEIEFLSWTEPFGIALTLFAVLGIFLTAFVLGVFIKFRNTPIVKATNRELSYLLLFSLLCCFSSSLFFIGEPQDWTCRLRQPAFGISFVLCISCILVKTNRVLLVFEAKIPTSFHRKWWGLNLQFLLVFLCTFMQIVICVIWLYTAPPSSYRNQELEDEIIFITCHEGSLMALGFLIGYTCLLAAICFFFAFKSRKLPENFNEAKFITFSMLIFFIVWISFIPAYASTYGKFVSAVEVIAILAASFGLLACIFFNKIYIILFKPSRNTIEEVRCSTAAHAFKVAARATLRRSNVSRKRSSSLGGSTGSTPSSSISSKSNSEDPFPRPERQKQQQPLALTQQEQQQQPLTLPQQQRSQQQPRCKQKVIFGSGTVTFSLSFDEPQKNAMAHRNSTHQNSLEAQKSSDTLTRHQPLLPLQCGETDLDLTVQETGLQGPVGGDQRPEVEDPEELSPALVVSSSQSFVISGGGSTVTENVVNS
Experimental: Xenopus oocytes were injected with pHuPCaR 5.2, the 5.2 Kb cDNA encoding a parathyroid cell calcium receptor derived from a human parathyroid cell adenoma. (See Example 27.) After two to three days, Cl^− currents were measured in the oocytes using a two-electrode voltage clamp.

For `COc1cccc([C@@H](C)NCCCc2ccccc2)c1` (single isomer, unassigned) [NPS R-467], the Cl- current [1] was “rapid increase in Cl^− current”.

`COc1cccc([C@@H](C)NCCCc2ccccc2Cl)c1` [NPS R-568, (R)-(+)-N-[3-(2-chlorophenyl)propyl]-α-methyl-3-methoxybenzylamine] was tested, and the Cl- current [2] was “evoked increases in the Cl^− current”.
